# Reference: US20260223850A1, “SUBSTITUTED PYRROLIDONE COMPOUND, PREPARATION METHOD THEREFOR, COMPOSITION AND APPLICATION THEREOF” (QINGDAO KINGAGROOT CHEMICAL COMPOUND CO., LTD., priority 2023, published 2026)
# Legend:
# Echinochloa crusgalli = assay: Seedling stage sealing experiment for water-seeding; format: in vivo; conditions: 120 g a.i./ha, 15 days, fresh weight control rate
# Excerpt: (§1) The activity level criteria for plant damage (i.e., growth control rate) are as follows: • Level 9: completely dead; • Level 8: growth control rate greater than or equal to 90% and less than 100%; • Level 7: growth control rate greater than or equal to 80% and less than 90%; • Level 6: growth control rate greater than or equal to 70% and less than 80%; • Level 5: growth control rate greater than or equal to 50% and less than 70%; • Level 4: growth control rate greater than or equal to 30% and less than 50%; • Level 3: growth control rate greater than or equal to 20% and less than 30%; • Level 2: growth control rate greater than or equal to 10% and less than 20%; • Level 1: growth control rate less than 10%; • Level 0: no effect.
# (§2) The above growth control rates are fresh weight control rates.
# (§3) Echinochloa phyllopogon, Digitaria sanguinalis, Huaidao (rice cultivar), etc. were broadcasted on the surface of nutrition bowls filled with soil and fully covered by soil. The foregoing well-prepared nutrition bowls were then placed in a cultivation box with water filled to a suitable height to keep the soil in the nutrition bowls moist. A test compound of the present invention was individually dissolved with acetone, then diluted into solution of a certain concentration using a certain amount of water, and sprayed using a spray tower. The plants were placed on a greenhouse seedbed and cultured for 15 days, and the experimental results were then collected. The compound was applied at 120, 60, 30 and 15 g a.i./ha in triplicate, and the results were averaged.
# Echinochloa phyllopogon = assay: as above; format: in vivo; conditions: 120 g a.i./ha, 15 days, fresh weight control rate
# Excerpt: as §1, §2, §3
# [1] = spray, seedling stage sealing for water-seeding
Structure (SMILES),Echinochloa crusgalli activity level (growth control rate) (Echinochloa crusgalli; seedling stage sealing),Echinochloa phyllopogon activity level (growth control rate) (Echinochloa phyllopogon; seedling stage sealing),Echinochloa crusgalli activity level (growth control rate) (Echinochloa crusgalli; [1]),Echinochloa phyllopogon activity level (growth control rate) (Echinochloa phyllopogon; [1])
CN1C[C@H](c2cccc(C(F)(F)F)c2)[C@@H](C(=O)Nc2cnn(C)c2Cl)C1=O [1′],9,6 (Level 6: growth control rate greater than or equal to 70% and less than 80%),,
CCn1ncc(NC(=O)[C@H]2C(=O)N(C)C[C@@H]2c2cccc(C(F)(F)F)c2)c1Cl [95′],9,8 (Level 8: growth control rate greater than or equal to 90% and less than 100%),,
Cc1ccccc1[C@H]1CN(C)C(=O)[C@@H]1C(=O)Nc1cnn(C)c1Cl [124′],6 (Level 6: growth control rate greater than or equal to 70% and less than 80%),,,
CN1C[C@H](c2cccc(C(F)(F)F)c2)[C@@H](C(=O)Nc2cnn(C)c2N)C1=O [198′],5 (Level 5: growth control rate greater than or equal to 50% and less than 70%),,,
CO/N=C/c1cccc([C@H]2CN(C)C(=O)[C@@H]2C(=O)Nc2cnn(C)c2Cl)c1 [232′],6 (Level 6: growth control rate greater than or equal to 70% and less than 80%),,,
CC(C)c1ccc([C@H]2CN(C)C(=O)[C@@H]2C(=O)Nc2cnn(C)c2Cl)cc1 [245′],,5 (Level 5: growth control rate greater than or equal to 50% and less than 70%),,
COCc1ccc([C@H]2CN(C)C(=O)[C@@H]2C(=O)Nc2cnn(C)c2Cl)cc1 [253′],6 (Level 6: growth control rate greater than or equal to 70% and less than 80%),,,
CN1C[C@H](c2ccc(C(F)(F)F)c(F)c2Cl)[C@@H](C(=O)Nc2cnn(C)c2Cl)C1=O [329′],7 (Level 7: growth control rate greater than or equal to 80% and less than 90%),6 (Level 6: growth control rate greater than or equal to 70% and less than 80%),,
Cc1ccc([C@H]2CN(C)C(=O)[C@@H]2C(=O)Nc2cnn(C)c2Cl)s1 [335′],7 (Level 7: growth control rate greater than or equal to 80% and less than 90%),,,
CN1C[C@H](c2cccc(Oc3ccccn3)c2)[C@@H](C(=O)Nc2cnn(C)c2Cl)C1=O [360′],7 (Level 7: growth control rate greater than or equal to 80% and less than 90%),,,
CSc1c(NC(=O)[C@H]2C(=O)N(C)C[C@@H]2c2cccc(C)c2)cnn1C [393′],9,9,,
Cc1cccc([C@H]2CN(C)C(=O)[C@@H]2C(=O)Nc2cnn(C(F)F)c2C2CC2)c1 [395′],9,9,,
CCc1c(NC(=O)[C@H]2C(=O)N(C)C[C@@H]2c2cccc(C(F)(F)F)c2)cnn1C(F)F [403′],9,9,,
CN1C[C@H](c2cccc(C(F)(F)F)c2)[C@@H](C(=O)Nc2cnn(C)c2C(F)(F)F)C1=O [404′],9,9,,
CN1C[C@H](c2cccc(OC(F)(F)F)c2)[C@@H](C(=O)Nc2cnn(C(F)F)c2Cl)C1=O [414′],9,9,,
Cc1ccc([C@H]2CN(C)C(=O)[C@@H]2C(=O)Nc2cnn(C)c2C)cc1 [415′],9,9,,

Structure (SMILES),Echinochloa crusgalli activity level (growth control rate) (Echinochloa crusgalli; seedling stage sealing),Echinochloa phyllopogon activity level (growth control rate) (Echinochloa phyllopogon; seedling stage sealing),Echinochloa crusgalli activity level (growth control rate) (Echinochloa crusgalli; [1]),Echinochloa phyllopogon activity level (growth control rate) (Echinochloa phyllopogon; [1])
Cc1cc(C)cc([C@H]2CN(C)C(=O)[C@@H]2C(=O)Nc2cnn(C(F)F)c2C2CC2)c1 [429′],9,9,,
CSc1c(NC(=O)[C@H]2C(=O)N(C)C[C@@H]2c2cc(C)cc(C)c2)cnn1C [431′],9,9,,
Cc1cc(C)cc([C@H]2CN(C)C(=O)[C@@H]2C(=O)Nc2cnn(C)c2C#N)c1 [434′],9,9,,
Cc1ccc([C@H]2CN(C)C(=O)[C@@H]2C(=O)Nc2cnn(C(F)F)c2Cl)cc1F [444′],,,9,9
Cc1cc(C)cc([C@H]2CN(C)C(=S)[C@@H]2C(=S)Nc2cnn(C)c2Cl)c1 [451′],,,8 (Level 8: growth control rate greater than or equal to 90% and less than 100%),7 (Level 7: growth control rate greater than or equal to 80% and less than 90%)
CCc1c(NC(=O)[C@H]2C(=O)N(C)C[C@@H]2c2cccc(C)c2)cnn1C(F)F [466′],,,9,9
CSc1c(NC(=O)[C@H]2C(=O)N(C)C[C@@H]2c2cccc(C(F)(F)F)c2)cnn1C [479′],,,9,9
Cc1cc([C@H]2CN(C)C(=O)[C@@H]2C(=O)Nc2cnn(C(F)F)c2Cl)cc(C)c1C [515′],,,9,9
C=C(C)c1ccc(C2CN(C)C(=O)C2C(=O)Nc2cnn(C)c2Cl)cc1 (stereo not shown) [Compound 252],7 (Level 7: growth control rate greater than or equal to 80% and less than 90%),9,,
CN1CC(c2ccc(OC(F)(F)F)cc2)C(C(=O)Nc2cnn(C)c2Cl)C1=O (stereo not shown) [Compound 254],5 (Level 5: growth control rate greater than or equal to 50% and less than 70%),5 (Level 5: growth control rate greater than or equal to 50% and less than 70%),,
CN1CC(c2ccc(-c3cccc(C(F)(F)F)c3)cc2)C(C(=O)Nc2cnn(C)c2Cl)C1=O (stereo not shown) [Compound 261],6 (Level 6: growth control rate greater than or equal to 70% and less than 80%),5 (Level 5: growth control rate greater than or equal to 50% and less than 70%),,
COc1cc(OC)cc(C2CN(C)C(=O)C2C(=O)Nc2cnn(C)c2Cl)c1 (stereo not shown) [Compound 302],6 (Level 6: growth control rate greater than or equal to 70% and less than 80%),5 (Level 5: growth control rate greater than or equal to 50% and less than 70%),,
CSc1c(C(F)(F)F)ccc(C2CN(C)C(=O)C2C(=O)Nc2cnn(C)c2Cl)c1Cl (stereo not shown) [Compound 330],6 (Level 6: growth control rate greater than or equal to 70% and less than 80%),5 (Level 5: growth control rate greater than or equal to 50% and less than 70%),,
CN1CC(c2cc(F)cc(F)c2F)C(C(=O)Nc2cnn(C)c2Cl)C1=O (stereo not shown) [Compound 332],5 (Level 5: growth control rate greater than or equal to 50% and less than 70%),,,
CN1CC(c2ccc3occc3c2)C(C(=O)Nc2cnn(C)c2Cl)C1=O (stereo not shown) [Compound 355],5 (Level 5: growth control rate greater than or equal to 50% and less than 70%),,,
Cc1ccc(C2CN(C)C(=O)C2C(=O)Nc2cnn(C)c2C(F)(F)F)cc1C (stereo not shown) [Compound 488],,,9,9
